Patent publication US8754079B2, “Cycloalkyl containing thienopyrimidines for pharmaceutical compositions” (Boehringer Ingelheim International GmbH, priority 2010, dated 2014)

Target: T1, MNK2 (Homo sapiens, UniProt Q9HBH9)
T1 construct: the open reading frames of human Mnk1 and Mnk2a were amplified from cDNA; made in house; host or cells: E. coli BL21
Test: Mnk2a in vitro kinase assay (indirect fluorescence polarization)
Assay type: biochemical
Conditions: pre-activated GST-Mnk2a 2.5 nM, 20 μM ATP, 30 μM substrate peptide
Procedure: Inhibitory potency of compounds against Mnk1, Mnk2a and other kinases was assessed with assays based on a format known to those skilled in the art as the indirect (competitive) fluorescence polarization. The assay detection system comprises a small fluorophore-labeled phospho-peptide (termed ligand) bound to a phospho-specific antibody. The product generated by the kinase reaction competes with the ligand for antibody binding. Based on the larger molecular volume of the bound ligand, which results in a lower rotation rate in solution, its emitted light has a higher degree of polarization than the one from the free ligand.
Example 2a. Mnk1 and Mnk2a in vitro kinase assay
As a source of enzyme, human Mnk1 and human Mnk2a were expressed as GST fusion proteins in E. coli, purified to >80% homogeneity by glutathione affinity chromatography and activated in vitro with pre-activated ERK2. In brief, the open reading frames of human Mnk1 and Mnk2a were amplified from cDNA using the forward/reverse primer pairs
(utilized restriction sites underlined), respectively, and cloned into the BamHI and SalI sites of the vector pGEX-4T1 (Amersham, Sweden, cat. no. 27-4580-01). These constructs allow prokaryotic expression of Mnk1 or Mnk2a as fusion protein with a N-terminal glutathione S-transferase (GST) tag, referred to as GST-Mnk1 or GSTMnk2a. The following expression and purification procedure was identical for GSTMnk1 and GST-Mnk2a, referring in general to GST-Mnk, when not distinguishing between the two isoforms. Expression of GST-Mnk was in E. coli BL21 (Merck Biosciences, Germany, cat. no. 69449). Cells were grown in LB-Bouillon (Merck, Germany, cat. no. 1.10285) supplemented with 100 μg/ml ampicillin (Sigma, Germany, cat. no. A9518) at 37° C. When the culture had reached a density corresponding to an A600 of 0.8, an equal volume of ice cold LB/ampicillin was added, the culture transferred to 25° C. and induced for 4 h with 1 mM isopropyl thiogalactoside (IPTG, Roth, Germany, cat. no. 2316.4). Cells harvested by centrifugation were resuspended in 10 ml lysis buffer (50 mM tris(hydroxymethyl)aminomethane hydrochloride (Tris/HCl, Sigma, Germany, cat. no. T5941) pH 7.5, 300 mM sodium chloride (NaCl, Sigma, Germany, cat. no. S7653), 5% (w/v) glycerol (Sigma, Germany, cat. no. G5516), 3 mM DTT dithiotreitol (DTT, Sigma, Germany, cat. no. D9779)) per gram wet weight cell pellet. Lysates were prepared by disruption of cells with a sonifier and subsequent clearing by centrifugation at 38000 g for 45 min at 4° C.
The lysate was applied to a GSTPrep FF 16/10 column (Amersham, Sweden, cat. no. 17-5234-01) equilibrated with lysis buffer. Removal of unbound material was with 3 column volumes (CV) lysis buffer. Elution was with 2 CV of elution buffer (50 mM Tris/HCl pH 7.5, 300 mM NaCl, 5% (w/v) glycerol, 20 mM glutathione (Sigma, Germany, cat. no. G4251)). Peak fractions were pooled and the protein transferred into storage buffer (50 mM Tris/HCl pH 7.5, 200 mM NaCl, 0.1 mM ethylene glycolbis(2-aminoethylether)-N,N,N′,N′-tetraacetic acid (EGTA, Aldrich, Germany, cat. no. 23, 453-2), 1 mM DTT, 10% (w/v) glycerol, 0.5 M sucrose (Sigma, Germany, cat. no. S0389) by gel filtration on a PD10 desalting column (Amersham, Sweden, cat. no. 17-0851-01). Aliquots were shock frozen in liquid nitrogen and stored at −80° C.
Activation of Mnk1 and Mnk2a was at a concentration of 2.5 μM of either purified GST-Mnk1 or GST-Mnk2a by incubation with 150 nM pre-activated NHis-ERK2 (see ERK2 assay for preparation) and 50 μM adenosine triphosphate (ATP, Sigma, cat. no. A2699) in a buffer comprising 20 mM N-(2-hydroxyethyl)piperazine-N′-(2-ethanesulfonic acid) (HEPES, Fluka, Germany, cat. no 54459)/potassium hydroxide (KOH, Roth, Germany, cat. no 6751.1) pH 7.4, 10 mM magnesium chloride (MgCl2, Sigma, Germany, cat. no. M2670), 0.25 mM DTT, 0.05% (w/v) polyoxyethylene 20 stearylether (Brij 78, Sigma, Germany, cat. no. P4019) (HMDB buffer) for 45 min at 30° C. […]

T1 sequence (Q9HBH9 whole entry): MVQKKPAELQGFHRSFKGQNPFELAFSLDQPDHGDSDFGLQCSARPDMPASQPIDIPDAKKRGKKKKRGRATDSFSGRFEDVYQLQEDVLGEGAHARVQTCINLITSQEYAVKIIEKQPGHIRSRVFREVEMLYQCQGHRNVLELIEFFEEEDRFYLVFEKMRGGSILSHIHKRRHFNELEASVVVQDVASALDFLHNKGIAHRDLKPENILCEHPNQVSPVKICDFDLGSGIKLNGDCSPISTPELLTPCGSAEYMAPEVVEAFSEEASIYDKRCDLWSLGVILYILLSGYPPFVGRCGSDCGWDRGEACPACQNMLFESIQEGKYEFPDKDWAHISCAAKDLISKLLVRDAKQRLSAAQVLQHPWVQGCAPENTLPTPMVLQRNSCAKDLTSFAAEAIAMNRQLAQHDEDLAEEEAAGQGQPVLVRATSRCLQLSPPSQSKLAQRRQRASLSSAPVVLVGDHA

Row | IC50 [µM] | SMILES
1 | 0.007 | Cc1c(C(N)=O)sc2ncnc(Nc3ccc(F)cc3O[C@@H]3CCC[C@H](O)C3)c12 (racemic) [Example 57, Racemic 4-[4-Fluoro-2-((cis)-3-hydroxy-cyclohexyloxy)-phenylamino]-5-methyl-thieno[2,3-d]pyrimidine-6-carboxylic acid amide]
2 | 0.006 | Cc1c(C(N)=O)sc2ncnc(Nc3ccc(F)cc3O[C@@H]3CCC[C@@H](O)C3)c12 (racemic) [Example 58, Racemic 4-[4-Fluoro-2-((trans)-3-hydroxy-cyclohexyloxy)-phenylamino]-5-methyl-thieno[2,3-d]pyrimidine-6-carboxylic acid amide]
3 | 0.014 | Cc1c(C(=O)NCC#CCN)sc2ncnc(Nc3ccc(F)cc3O[C@@H]3CCC[C@@H](O)C3)c12 (racemic) [Example 60]
4 | 0.026 | Cc1c(C(=O)NCCCCO)sc2ncnc(Nc3ccc(F)cc3O[C@@H]3CCC[C@@H](O)C3)c12 (racemic) [Example 61]
5 | 0.017 | Cc1c(C(=O)NCc2cnco2)sc2ncnc(Nc3ccc(F)cc3O[C@@H]3CCC[C@@H](O)C3)c12 (racemic) [Example 62]
6 | 0.014 | Cc1c(C(=O)NCC#N)sc2ncnc(Nc3ccc(F)cc3O[C@@H]3CCC[C@@H](O)C3)c12 (racemic) [Example 63]
7 | 0.021 | CNC(=O)CNC(=O)c1sc2ncnc(Nc3ccc(F)cc3O[C@@H]3CCC[C@@H](O)C3)c2c1C (racemic) [Example 64]
8 | 0.016 | Cc1c(C(=O)NCC#CCN(C)C)sc2ncnc(Nc3ccc(F)cc3O[C@@H]3CCC[C@@H](O)C3)c12 (racemic) [Example 65]
9 | 0.026 | Cc1c(C(=O)NCCCN2CCOCC2)sc2ncnc(Nc3ccc(F)cc3O[C@@H]3CCC[C@@H](O)C3)c12 (racemic) [Example 66]
10 | 0.034 | Cc1c(C(=O)N[C@H]2CC[C@H](O)CC2)sc2ncnc(Nc3ccc(F)cc3O[C@@H]3CCC[C@@H](O)C3)c12 (racemic) [Example 69]
11 | 0.023 | Cc1c(C(=O)NCCN2CCCCC2)sc2ncnc(Nc3ccc(F)cc3O[C@@H]3CCC[C@@H](O)C3)c12 (racemic) [Example 72]
12 | 0.022 | Cc1c(C(=O)NCCCO)sc2ncnc(Nc3ccc(F)cc3O[C@@H]3CCC[C@@H](O)C3)c12 (racemic) [Example 74]
13 | 0.013 | Cc1c(C(=O)NCc2cn(C)cn2)sc2ncnc(Nc3ccc(F)cc3O[C@@H]3CCC[C@@H](O)C3)c12 (racemic) [Example 76]
14 | 0.025 | CCNC(=O)c1sc2ncnc(Nc3ccc(F)cc3O[C@@H]3CCC[C@@H](O)C3)c2c1C (racemic) [Example 78]
15 | 0.015 | CO[C@@H]1CCC[C@@H](Oc2cc(F)ccc2Nc2ncnc3sc(C(N)=O)c(C)c23)C1 (racemic) [Example 79, Racemic 4-[4-Fluoro-2-((trans)-3-methoxy-cyclohexyloxy)-phenylamino]-5-methyl-thieno[2,3-d]pyrimidine-6-carboxylic acid amide]
16 | 0.044 | CO[C@@H]1CCC[C@@H](Oc2cc(F)ccc2Nc2ncnc3sc(C(=O)NCc4cnco4)c(C)c23)C1 (racemic) [Example 82]
17 | 0.061 | CO[C@@H]1CCC[C@@H](Oc2cc(F)ccc2Nc2ncnc3sc(C(=O)NCCCN(C)C)c(C)c23)C1 (racemic) [Example 88]
18 | 0.008 | CO[C@H]1CCC[C@@H](Oc2cc(F)ccc2Nc2ncnc3sc(C(N)=O)c(C)c23)C1 (racemic) [Example 89, Racemic 4-[4-Fluoro-2-((cis)-3-methoxy-cyclohexyloxy)-phenylamino]-5-methyl-thieno[2,3-d]pyrimidine-6-carboxylic acid amide]
19 | 0.016 | CO[C@H]1CCC[C@@H](Oc2cc(F)ccc2Nc2ncnc3sc(C(=O)NCC#CCN)c(C)c23)C1 (racemic) [Example 91]
20 | 0.036 | CO[C@H]1CCC[C@@H](Oc2cc(F)ccc2Nc2ncnc3sc(C(=O)NCCCCO)c(C)c23)C1 (racemic) [Example 92]

Row | IC50 [µM] | SMILES
21 | 0.016 | CO[C@H]1CCC[C@@H](Oc2cc(F)ccc2Nc2ncnc3sc(C(=O)NCc4cnco4)c(C)c23)C1 (racemic) [Example 93]
22 | 0.028 | CNC(=O)CNC(=O)c1sc2ncnc(Nc3ccc(F)cc3O[C@@H]3CCC[C@H](OC)C3)c2c1C (racemic) [Example 95]
23 | 0.024 | CO[C@H]1CCC[C@@H](Oc2cc(F)ccc2Nc2ncnc3sc(C(=O)NCCCN4CCOCC4)c(C)c23)C1 (racemic) [Example 97]
24 | 0.034 | CO[C@H]1CCC[C@@H](Oc2cc(F)ccc2Nc2ncnc3sc(C(=O)N[C@H]4CC[C@H](O)CC4)c(C)c23)C1 (racemic) [Example 100]
25 | 0.021 | CO[C@H]1CCC[C@@H](Oc2cc(F)ccc2Nc2ncnc3sc(C(=O)NCCO)c(C)c23)C1 (racemic) [Example 101]
26 | 0.05 | CO[C@H]1CCC[C@@H](Oc2cc(F)ccc2Nc2ncnc3sc(C(=O)NCCN4CCCCC4)c(C)c23)C1 (racemic) [Example 103]
27 | 0.024 | CO[C@H]1CCC[C@@H](Oc2cc(F)ccc2Nc2ncnc3sc(C(=O)NCCCO)c(C)c23)C1 (racemic) [Example 105]
28 | 0.022 | CO[C@H]1CCC[C@@H](Oc2cc(F)ccc2Nc2ncnc3sc(C(=O)NCCCN4CCCC4)c(C)c23)C1 (racemic) [Example 106]
29 | 0.024 | CCNC(=O)c1sc2ncnc(Nc3ccc(F)cc3O[C@@H]3CCC[C@H](OC)C3)c2c1C (racemic) [Example 109]
30 | 0.009 | COC(=O)c1sc2ncnc(Nc3cccnc3O[C@@H]3CCC[C@H](OC)C3)c2c1C (racemic) [Example 110.1, Racemic 4-[2-((cis)-3-Methoxy-cyclohexyloxy)-pyridin-3-ylamino]-5-methyl-thieno[2,3-d]pyrimidine-6-carboxylic acid methylester]
31 | 0.013 | CO[C@H]1CCC[C@@H](Oc2ncccc2Nc2ncnc3sc(C(=O)NCC#CCN)c(C)c23)C1 (racemic) [Example 112]
32 | 0.023 | CO[C@H]1CCC[C@@H](Oc2ncccc2Nc2ncnc3sc(C(=O)NCCCCO)c(C)c23)C1 (racemic) [Example 113]
33 | 0.019 | CO[C@H]1CCC[C@@H](Oc2ncccc2Nc2ncnc3sc(C(=O)NCc4cnco4)c(C)c23)C1 (racemic) [Example 114]
34 | 0.033 | CNC(=O)CNC(=O)c1sc2ncnc(Nc3cccnc3O[C@@H]3CCC[C@H](OC)C3)c2c1C (racemic) [Example 116]
35 | 0.022 | CO[C@H]1CCC[C@@H](Oc2ncccc2Nc2ncnc3sc(C(=O)NCCCN4CCOCC4)c(C)c23)C1 (racemic) [Example 118]
36 | 0.041 | CO[C@H]1CCC[C@@H](Oc2ncccc2Nc2ncnc3sc(C(=O)N[C@H]4CC[C@H](O)CC4)c(C)c23)C1 (racemic) [Example 121]
37 | 0.018 | CO[C@H]1CCC[C@@H](Oc2ncccc2Nc2ncnc3sc(C(=O)NCCO)c(C)c23)C1 (racemic) [Example 122]
38 | 0.036 | CO[C@H]1CCC[C@@H](Oc2ncccc2Nc2ncnc3sc(C(=O)NCCN4CCCCC4)c(C)c23)C1 (racemic) [Example 124]
39 | 0.016 | CO[C@H]1CCC[C@@H](Oc2ncccc2Nc2ncnc3sc(C(=O)NCCCN4CCCC4)c(C)c23)C1 (racemic) [Example 127]
